Drawing on patent US8501778B2, “Aralkyl piperidine derivatives and their uses as antalgic or ataractic agent” (priority 2008, dated 2013), this text covers inhibition in vivo for 43 molecules.

Structures are written as SMILES. Counter-ions that a name gives are not always drawn.

The subject of one test is Kunming mice. The experiment in a line: Acetic Acid Twisting Method in mice (antalgic effect). Particulars: Mus musculus, po; 20 mg/kg, gavage administration, mice; read-out: twisting response inhibiting rate (%). Type of test: in vivo.
Take `CC(=O)Oc1ccccc1C(=O)O` [Aspirin, reference compound]: the inhibition in vivo at 20 mg/kg was 90%.

The test is the same for the next values; noted with them: Mus musculus, sc, read-out: antalgic.
As to `O=C(CC1(O)CCN(Cc2ccc(Cl)cc2)CC1)c1ccccc1` [III-2, N-p-chlorobenzyl-4-benzoylmethyl-4-piperidinol hydrochloride], the inhibition in vivo at 20 mg/kg is 14%. With `CC(c1ccc(N2CCCC2)cc1)N1CCC(F)(CC(=O)c2ccccc2)CC1` (stereo not shown) [IX-4, N-(1-(4-(pyrrolidinyl)phenyl)ethyl)-4-benzoylmethyl-4-fluoropiperidine hydrochloride], the inhibition in vivo at 20 mg/kg worked out at 64%.

Take `C[C@@H](c1ccccc1)N1CCC(O)(CC(=O)c2ccccc2)CC1` [III-18, (S)—N-(1-phenylethyl)-4-benzoylmethyl-4-piperidinol hydrochloride]: the inhibition in vivo at 20 mg/kg came to 84%. For the molecule `COc1ccc(C(C)N2CCC(O)(CC(=O)c3ccccc3)CC2)cc1` (stereo not shown) [III-19, N-(1-(4-methoxyphenyl)ethyl)-4-benzoylmethyl-4-piperidinol hydrochloride], the inhibition in vivo at 20 mg/kg was 91%.

On to `COc1ccc(CN2CCC(O)(CC(O)c3ccccc3)CC2)cc1` (stereo not shown) [Compound V-1, N-p-methoxybenzyl-4-(2-hydroxy-2-phenylethyl)-4-piperidinol hydrochloride], for which the inhibition in vivo at 20 mg/kg worked out at 76%. On the same count and under the same terms, to `CC(c1ccc2c(c1)OCO2)N1CCC(O)(CC(=O)c2ccccc2)CC1` (stereo not shown) [III-22, N-(1-(benzo[d][1,3]dioxol-5-yl)ethyl)-4-benzoylmethyl-4-piperidinol hydrochloride] belongs 43%; to `CC(c1ccc(N2CCCC2)cc1)N1CCC(O)(CC(=O)c2ccccc2)CC1` (stereo not shown) [III-25, N-(1-(4-(1-pyrrolidinyl)phenyl)ethyl)-4-benzoylmethyl-4-piperidinol hydrochloride], 80%. Still for that read-out and setting: then `CC(c1ccc(F)cc1)N1CCC(O)(CC(=O)c2ccccc2)CC1` (stereo not shown) [III-20, N-(1-(4-fluorophenyl)ethyl)-4-benzoylmethyl-4-piperidinol hydrochloride], with 37%. Regarding `COc1ccccc1N1CCC(O)(CC(O)c2ccccc2)CC1` (stereo not shown) [Compound V-5, N-(2-methoxyphenyl)-4-(2-hydroxy-2-phenylethyl)-4-piperidinol hydrochloride], the inhibition in vivo at 20 mg/kg was 72%. Consider `O=C(CC1(O)CCN(Cc2ccc3c(c2)OCO3)CC1)c1ccccc1` [III-13, N-(benzo[d][1,3]dioxol-5-ylmethyl)-4-benzoylmethyl-4-piperidinol hydrochloride], for which the inhibition in vivo at 20 mg/kg is 37%. For `O=C(CC1(O)CCN(Cc2ccccc2)CC1)c1ccc(Cl)cc1` [III-33, N-benzyl-4-(p-chlorobenzoylmethyl)-4-piperidinol hydrobromide], the inhibition in vivo at 20 mg/kg came to 26%. As for `O=C1Cc2cc(CN3CCC(O)(CC(=O)c4ccccc4)CC3)ccc2N1` [III-29, N-(2-oxo-5-indolinyl)methyl-4-benzoylmethyl-4-piperidinol hydrochloride], the inhibition in vivo at 20 mg/kg was 45%. Same read-out and setting: to `CC(C(=O)c1ccccc1)C1(O)CCN(Cc2ccccc2)CC1` (stereo not shown) [III-39, N-benzyl-4-(1-benzoylethyl)-4-piperidinol hydrochloride] belongs 56%; to `O=C(CC1(O)CCN(Cc2ccccc2)CC1)c1ccc(N2CCOCC2)cc1` [III-36, N-benzyl-4-((4-morpholinobenzoyl)methyl)-4-piperidinol hydrochloride], 41%; to `C[C@H](c1ccccc1)N1CCC(O)(CC(=O)c2ccccc2)CC1` [III-17, (R)—N-(1-phenylethyl)-4-benzoylmethyl-4-piperidinol hydrochloride], 66%. The same measure, in the same setting: to `CC(c1ccc(N2CCOCC2)cc1)N1CCC(O)(CC(=O)c2ccccc2)CC1` (stereo not shown) [III-27, N-(1-(4-morpholinophenyl)ethyl)-4-benzoylmethyl-4-piperidinol hydrochloride] belongs 92%.

Regarding `CC(c1ccc(N2CCOCC2)cc1)N1CCC(O)(CC(O)c2ccccc2)CC1` (stereo not shown) [Compound V-8, N-(1-(4-morpholinophenyl)ethyl)-4-(2-hydroxy-2-phenylethyl)-4-piperidinol hydrochloride], the inhibition in vivo at 20 mg/kg turned out to be 77%.

Take `O=C(CC1(O)CCN(c2ncccn2)CC1)c1ccccc1` [III-9, N-(2-pyrimidinyl)-4-benzoylmethyl-4-piperidinol hydrochloride]: the inhibition in vivo at 20 mg/kg was 57%.

Take `OC(CC1(O)CCN(Cc2ccc3c(c2)CCN3)CC1)c1ccccc1` (stereo not shown) [Compound V-6, N-(5-indolinyl)methyl-4-(2-hydroxy-2-phenylethyl)-4-piperidinol hydrochloride]: the inhibition in vivo at 20 mg/kg worked out at 69%.

Consider `O=C(CC1(O)CCN(Cc2ncccn2)CC1)c1ccccc1` [III-10, N-(2-pyrimidinyl)methyl-4-benzoylmethyl-4-piperidinol hydrochloride], for which the inhibition in vivo at 20 mg/kg is 51%. On to `O=C(CC1(O)CCN(Cc2ccc(N3CCCC3)cc2)CC1)c1ccccc1` [III-24, N-(4-(1-pyrrolidinyl)benzyl)-4-benzoylmethyl-4-piperidinol hydrochloride], for which the inhibition in vivo at 20 mg/kg was 62%. With `CC(c1ccc(N)cc1)N1CCC(O)(CC(=O)c2ccccc2)CC1` (stereo not shown) [III-21, N-(1-(4-aminophenyl)ethyl)-4-benzoylmethyl-4-piperidinol hydrochloride], the inhibition in vivo at 20 mg/kg is 57%. `COC1(CC(=O)c2ccccc2)CCN(C(C)c2ccc(N3CCOCC3)cc2)CC1` (stereo not shown) [VIII-3, N-(1-(4-morpholinophenyl)ethyl)-4-benzoylmethyl-4-methoxylpiperidine hydrochloride]: the inhibition in vivo at 20 mg/kg was found to be 60%. Same read-out and setting: then `O=C(CC1(O)CCN(Cc2ccc(N3CCCCC3)cc2)CC1)c1ccccc1` [III-28, N-(4-(1-piperidinyl)benzyl)-4-benzoylmethyl-4-piperidinol hydrochloride], with 64%; and `OC(CC1(O)CCN(Cc2ccc3c(c2)OCO3)CC1)c1ccccc1` (stereo not shown) [Compound V-4, N-(benzo[d][1,3]dioxol-5-ylmethyl)-4-(2-hydroxy-2-phenylethyl)-4-piperidinol hydrochloride], with 76%. Consider `CC(c1ccccc1)N1CCC(O)(CC(=O)c2ccccc2)CC1` (stereo not shown) [III-16, N-(1-phenylethyl)-4-benzoylmethyl-4-piperidinol hydrochloride], for which the inhibition in vivo at 20 mg/kg was determined as 33%. With `O=C(CC1(F)CCN(Cc2ccc3c(c2)OCO3)CC1)c1ccccc1` [IX-2, N-(benzo[d][1,3]dioxol-5-ylmethyl)-4-benzoylmethyl-4-fluoropiperidine hydrochloride], the inhibition in vivo at 20 mg/kg worked out at 45%. On the same count and under the same terms, to `O=C(CC1(O)CCN(Cc2ccccn2)CC1)c1ccccc1` [III-8, N-(2-pyridyl)methyl-4-benzoylmethyl-4-piperidinol hydrochloride] belongs 77%; to `O=C(CC1(O)CCN(Cc2ccccc2)CC1)c1ccc(N2CCCC2)cc1` [III-35, N-benzyl-4-(4-(pyrrolidinyl)benzoylmethyl)-4-piperidinol hydrochloride], 64%; to `O=C(CC1(O)CCN(Cc2ccccc2)CC1)c1ccc2c(c1)CCN2` [III-37, N-benzyl-4-(2-(5-indolinyl)-2-oxoethyl)-4-piperidinol hydrochloride], 52%. Same read-out and setting: then `O=C(CC1(O)CCN(c2ccc3ccccc3n2)CC1)c1ccccc1` [III-11, N-(2-quinolyl)-4-benzoylmethyl-4-piperidinol hydrochloride], with 44%; and `O=C(CC1(O)CCN(Cc2ccc3c(c2)CCN3)CC1)c1ccccc1` [III-30, N-(5-indolinyl)methyl-4-benzoylmethyl-4-piperidinol hydrochloride], with 42%; and `COc1ccc(C(=O)CC2(O)CCN(Cc3ccccc3)CC2)cc1` [III-32, N-benzyl-4-(p-methoxybenzoylmethyl)-4-piperidinol hydrobromide], with 49%. Still for that read-out and setting: to `O=C(CC1(Cl)CCN(Cc2ccc3c(c2)OCO3)CC1)c1ccccc1` [IX-6, N-(benzo[d][1,3]dioxol-5-ylmethyl)-4-benzoylmethyl-4-chloropiperidine hydrochloride] belongs 59%; to `O=C(CC1(O)CCN(Cc2ccccc2)CC1)c1ccc2c(c1)OCO2` [III-38, N-benzyl-4-(2-(benzo[d][1,3]dioxol-5-yl)-2-oxoethyl)-4-piperidinol hydrochloride], 46%; to `CC(c1ccc(N2CCOCC2)cc1)N1CCC(F)(CC(=O)c2ccccc2)CC1` (stereo not shown) [IX-3, N-(1-(4-morpholinophenyl)ethyl)-4-benzoylmethyl-4-fluoropiperidine hydrochloride], 64%. Take `COc1ccccc1N1CCC(O)(CC(=O)c2ccccc2)CC1` [III-12, N-(2′-methoxyphenyl)-4-benzoylmethyl-4-piperidinol hydrochloride]: the inhibition in vivo at 20 mg/kg turned out to be 21%. Same read-out and setting: then `COc1ccc(C(C)N2CCC(Cl)(CC(=O)c3ccccc3)CC2)cc1` (stereo not shown) [IX-5, N-(1-(p-methoxyphenyl)ethyl)-4-benzoylmethyl-4-chloropiperidine hydrochloride], with 68%; and `O=C(CC1(O)CCN(Cc2ccccc2)CC1)c1ccccn1` [III-34, N-benzyl-4-(2-pyridinylformylmethyl)-4-piperidinol hydrobromide], with 75%; and `O=C(CC1(O)CCN(Cc2ccc(N3CCOCC3)cc2)CC1)c1ccccc1` [III-26, N-(4-morpholinobenzyl)-4-benzoylmethyl-4-piperidinol hydrochloride], with 64%.

Regarding `COc1ccc(C(C)N2CCC(CC(=O)c3ccccc3)(OC)CC2)cc1` (stereo not shown) [VIII-2, N-(1-(p-methoxyphenyl)ethyl)-4-benzoylmethyl-4-methoxylpiperidine hydrochloride], the inhibition in vivo at 20 mg/kg came out at 76%. Same read-out and setting: to `COc1cc(CN2CCC(O)(CC(=O)c3ccccc3)CC2)cc(OC)c1OC` [III-14, N-(3,4,5-trimethoxybenzyl)-4-benzoylmethyl-4-piperidinol hydrochloride] belongs 54%.
